SMILES strings stand for the structures.

The text below walks through data of patent publication US7879876B2, “Sulfonamide derivatives and use thereof for the modulation of metalloproteinases” (Merck Serono SA, priority 2005, dated 2011).

Holding throughout (format): biochemical
In experiment [1] the target is metalloelastase (MMP-12) (Homo sapiens, UniProt P39900). In words: MMP-12 enzyme inhibition assay (coumarin-labelled peptide substrate). The conditions noted are these: read-out: IC50 MMP12. The essentials:
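Recombinant human MMP-12 assayed per the MMP-9 protocol: Tris-HCl pH 7.6 buffer with NaCl, CaCl2, Brij 35; McaPLGLDpaAR substrate, compounds 100 μM–5.1 nM in duplicate, 2 h at 37° C. Fluorescence read at 405 nm (320 nm excitation) without stopping; IC50 from four-parameter fit.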

Experiment [2] has as its target T1, collagenase (MMP-1) (Homo sapiens, UniProt P03956).
T1 sequence (P03956 100-469): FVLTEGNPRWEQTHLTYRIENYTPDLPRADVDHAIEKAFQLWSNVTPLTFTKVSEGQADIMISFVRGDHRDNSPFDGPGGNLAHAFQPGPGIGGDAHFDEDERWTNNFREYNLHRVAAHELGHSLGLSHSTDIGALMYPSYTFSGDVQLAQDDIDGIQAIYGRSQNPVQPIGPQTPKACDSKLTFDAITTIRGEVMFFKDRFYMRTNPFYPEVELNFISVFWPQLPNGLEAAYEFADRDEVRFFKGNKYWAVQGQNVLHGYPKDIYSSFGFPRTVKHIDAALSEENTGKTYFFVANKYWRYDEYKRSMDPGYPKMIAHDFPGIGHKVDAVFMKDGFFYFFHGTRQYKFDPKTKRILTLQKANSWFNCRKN
In words: MMP-1 enzyme inhibition assay (coumarin-labelled peptide substrate). The conditions noted are these: read-out: percentage inhibition MMP1. An outline of the steps: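 Recombinant human MMP-1, APMA-activated if needed, in Tris-HCl pH 7.6 with NaCl, CaCl2 and 0.05% Brij 35; McaPLGLDpaAR substrate added as 8 μM solution, 2 h at 37 °C. Fluorescence (320/405 nm) read without stopping; IC50 from 10 duplicate concentrations (100 μM–5.1 nM) by four-parameter fit.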

In experiment [3] the target is 92 kDa gelatinase (MMP-9) (Homo sapiens, UniProt P14780). Description: MMP-9 enzyme inhibition assay (coumarin-labeled peptide substrate). The conditions noted are these: for IC50: read-out: IC50 MMP9; for inhibition at 5 µM: read-out: percentage inhibition MMP9. An outline of the steps: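 Recombinant human MMP-9 (APMA-activated if needed) was assayed in 100 mM Tris-HCl pH 7.6, 100 mM NaCl, 10 mM CaCl2, 0.05% Brij 35, with McaPLGLDpaAR substrate at 37° C. for 2 h. Fluorescence was read at ex 320/em 405 nm over ten 3-fold compound doses (100 μM–5.1 nM) in duplicate. IC50 came from a four-parameter fit.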
92 kDa gelatinase (MMP-9), sequence (P14780 107-707 limits assumed): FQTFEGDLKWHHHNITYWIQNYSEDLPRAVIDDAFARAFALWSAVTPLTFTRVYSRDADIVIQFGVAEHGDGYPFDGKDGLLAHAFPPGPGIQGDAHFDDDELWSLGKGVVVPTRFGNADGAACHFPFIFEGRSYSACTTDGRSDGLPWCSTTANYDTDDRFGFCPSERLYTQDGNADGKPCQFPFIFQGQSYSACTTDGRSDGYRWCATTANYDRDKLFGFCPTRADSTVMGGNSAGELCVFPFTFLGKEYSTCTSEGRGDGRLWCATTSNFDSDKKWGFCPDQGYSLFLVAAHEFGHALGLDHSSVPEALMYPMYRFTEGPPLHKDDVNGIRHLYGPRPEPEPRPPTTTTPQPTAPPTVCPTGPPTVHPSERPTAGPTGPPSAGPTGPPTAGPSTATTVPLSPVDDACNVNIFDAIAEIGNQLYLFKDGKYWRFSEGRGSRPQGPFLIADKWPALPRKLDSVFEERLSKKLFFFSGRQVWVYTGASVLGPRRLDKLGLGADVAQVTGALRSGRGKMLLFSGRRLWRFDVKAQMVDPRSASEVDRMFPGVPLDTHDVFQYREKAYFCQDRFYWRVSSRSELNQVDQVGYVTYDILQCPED

In experiment [4] the target is MMP-14 (Homo sapiens, UniProt P50281). Description: MMP-14 enzyme inhibition assay (coumarin-labelled peptide substrate). The conditions noted are these: read-out: percentage inhibition MMP14. The essentials:
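Recombinant human enzyme, APMA-activated if necessary, was incubated with McaPLGLDpaAR substrate and compound (10 concentrations in duplicate, 100 μM to 5.1 nM) in Tris-HCl pH 7.6 with NaCl, CaCl2 and Brij 35 for 2 h at 37 °C. Fluorescence was read at 320/405 nm, and IC50 was taken from a four-parameter fit.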

metalloelastase (MMP-12), sequence (P39900 106-470): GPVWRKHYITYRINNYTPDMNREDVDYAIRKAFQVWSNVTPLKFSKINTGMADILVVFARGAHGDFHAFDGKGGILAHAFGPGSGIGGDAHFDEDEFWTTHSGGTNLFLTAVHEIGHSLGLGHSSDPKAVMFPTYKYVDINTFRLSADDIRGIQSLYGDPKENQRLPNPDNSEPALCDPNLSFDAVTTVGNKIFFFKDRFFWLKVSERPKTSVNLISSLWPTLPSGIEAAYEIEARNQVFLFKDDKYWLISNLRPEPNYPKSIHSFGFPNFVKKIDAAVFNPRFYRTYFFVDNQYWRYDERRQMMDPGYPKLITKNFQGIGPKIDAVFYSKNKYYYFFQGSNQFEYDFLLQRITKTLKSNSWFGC

For the compound `O=CN(O)[C@@H](CS(=O)(=O)N1CCc2ccc(Cl)cc2C1)[C@H]1CCCO1` [Example 22, N-{(1R)-2-[(7-chloro-3,4-dihydroisoquinolin-2(1H)-yl)sulfonyl]-1-[(2R)-tetrahydrofuran-2-yl]ethyl}-N-hydroxyformamide], the IC50 in experiment [1] was 210 nM; in experiment [3], above 5000 nM. Moreover, the inhibition at 5 µM in experiment [2] and in experiment [4] was 0% throughout.
For the compound `O=CN(O)[C@H](CS(=O)(=O)N1CCc2ccc(Cl)cc2C1)[C@H]1CCCO1` [Example 23, N-{(1S)-2-[(7-chloro-3,4-dihydroisoquinolin-2(1H)-yl)sulfonyl]-1-[(2R)-tetrahydrofuran-2-yl]ethyl}-N-hydroxyformamide], the 50% inhibitory concentration (IC50) in experiment [1] is 28 nM; in experiment [3], above 5000 nM. Moreover, the inhibition at 5 µM in experiment [2] is 52%; in experiment [4], 72%. Besides, in experiment [4], the inhibition at 0.1 µM was 7%.
As for `COc1cc2c(cc1OC)CN(S(=O)(=O)CC([C@H](O)CO)N(O)C=O)CC2` (stereo partly drawn) [Example 24, N-((2S)-1-{[(6,7-dimethoxy-3,4-dihydroisoquinolin-2(1H)-yl)sulfonyl]methyl}-2,3-dihydroxypropyl)-N-hydroxyformamide], the figures for the 50% inhibitory concentration (IC50) in experiment [1] and in experiment [3] were 300 nM and above 5000 nM, respectively. Besides, the inhibition at 5 µM in experiment [2] and in experiment [4] was 0% in each case.
`O=CN(O)C(CS(=O)(=O)N1CCc2cc(C(F)(F)F)ccc2C1)C1CCCC1` (stereo not shown) [Example 25, N-(1-cyclopentyl-2-{[6-(trifluoromethyl)-3,4-dihydro-isoquinolin-2(1H)-yl]sulfonyl}ethyl)-N-hydroxyformamide]: the figures for the IC50 in experiment [1] and in experiment [3] were 6 nM and above 5000 nM, respectively. The inhibition at 5 µM in experiment [2] came out at 37%; in experiment [4], 73%. Further, the inhibition at 0.1 µM in experiment [4] was found to be 0%.
Take `CC(C)(C)CC(CS(=O)(=O)N1Cc2ccc(F)cc2C1)N(O)C=O` (stereo not shown) [Example 26, N-(1-{[(5-fluoro-1,3-dihydro-2H-isoindol-2-yl)sulfonyl]methyl}-3,3-dimethylbutyl)-N-hydroxyformamide]: in experiment [1], the IC50 was 10 nM. The inhibition at 0.1 µM in experiment [2] was found to be 17%. Moreover, the inhibition at 5 µM in experiment [2] was found to be 92%; in experiment [3], 62%; in experiment [4], 82%.
As for `O=CN(O)[C@H](CS(=O)(=O)N1CCc2ccc(C(F)(F)F)cc2C1)[C@H]1CCCO1` [Example 27, N-hydroxy-N-((1S)-1-[(2R)-tetrahydrofuran-2-yl]-2-{[7-(trifluoromethyl)-3,4-dihydroisoquinolin-2(1H)-yl]sulfonyl}ethyl)formamide], in experiment [1], the IC50 turned out to be 6.9 nM. For the same compound, the figures for the inhibition at 5 µM in experiment [2], in experiment [3] and in experiment [4] were 30%, 13% and 41%, respectively.
The like results for `CC1(C)OC[C@H](C(CS(=O)(=O)N2CCc3ccc(C(F)(F)F)cc3C2)N(O)C=O)O1` (stereo partly drawn) [Example 28, N-(1-[(4S)-2,2-dimethyl-1,3-dioxolan-4-yl]-2-{[7-(trifluoro-methyl)-3,4-dihydroisoquinolin-2(1H)-yl]sulfonyl}ethyl)-N-hydroxyformamide] were, in that order, 3.9 nM, 18%, 21% and 62%.
For `O=CN(O)[C@H](CS(=O)(=O)N1Cc2ccc(F)cc2C1)[C@H]1CCCO1` [Example 29, N-{(1S)-2-[(5-fluoro-1,3-dihydro-2H-isoindol-2-yl)-sulfonyl]-1-[(2R)-tetrahydrofuran-2-yl]ethyl}-N-hydroxyformamide], the IC50 in experiment [1] turned out to be 14 nM. In experiment [2], the inhibition at 0.1 µM turned out to be 22%. In addition, the inhibition at 5 µM was 94% in experiment [2], 40% in experiment [3] and 78% in experiment [4].
For the compound `CCC#CCC(C)(C)C(CS(=O)(=O)N1CCc2cc(C(F)(F)F)ccc2C1)N(O)C=O` (stereo not shown) [Example 30, N-[2,2-dimethyl-1-({[6-(trifluoromethyl)-3,4-dihydro-isoquinolin-2(1H)-yl]sulfonyl}methyl)hept-4-yn-1-yl]-N-hydroxyformamide], in experiment [1], the half-inhibitory concentration (IC50) is 32 nM. In addition, the figures for the inhibition at 5 µM in experiment [2], in experiment [3] and in experiment [4] were 8%, 3% and 38%, respectively.
The matching figures for `CC(C)(Cc1ccccc1)C(CS(=O)(=O)N1CCc2cc(C(F)(F)F)ccc2C1)N(O)C=O` (stereo not shown) [Example 31, N-[2,2-dimethyl-3-phenyl-1-({[6-(trifluoromethyl)-3,4-dihydroisoquinolin-2(1H)-yl]sulfonyl}methyl)propyl]-N-hydroxyformamide]: 40 nM, 10%, 3% and 19%.
The matching figures for `O=CN(O)[C@@H](CS(=O)(=O)N1CCc2ccc(C(F)(F)F)cc2C1)[C@H]1CCCO1` [Example 32, N-hydroxy-N-((1R)-1-[(2R)-tetrahydrofuran-2-yl]-2-{[7-(trifluoromethyl)-3,4-dihydroisoquinolin-2(1H)-yl]sulfonyl}ethyl)formamide]: 168 nM, 4%, 4% and 14%.
On to `COc1ccc2c(c1)CN(S(=O)(=O)CC(CCC1CCCO1)N(O)C=O)CC2` (stereo not shown) [Example 33, N-hydroxy-N-[1-{[(7-methoxy-3,4-dihydroisoquinolin-2(1H)-yl)sulfonyl]methyl}-3-(tetrahydrofuran-2-yl)propyl]formamide], for which the IC50 in experiment [1] came out at 27 nM. The inhibition at 5 µM was 4% in experiment [2], 15% in experiment [3] and 30% in experiment [4].
`CCC(CC)C(CS(=O)(=O)N1CCc2cc(Cl)c(Cl)cc2C1)N(O)C=O` (stereo not shown) [Example 34, N-(1-{[(6,7-dichloro-3,4-dihydroisoquinolin-2(1H)-yl)-sulfonyl]methyl}-2-ethylbutyl)-N-hydroxyformamide]: the half-inhibitory concentration (IC50) in experiment [1] is 6 nM. The results for the inhibition at 5 µM in experiment [2], in experiment [3] and in experiment [4] were 12%, 42% and 82%, respectively. Besides, the inhibition at 0.1 µM in experiment [4] is 3%.
The matching figures for `CCC(CC)C(CS(=O)(=O)N1CCc2cc(C(C)C)ccc2C1)N(O)C=O` (stereo not shown) [Example 35, N-(2-ethyl-1-{[(6-isopropyl-3,4-dihydroisoquinolin-2(1H)-yl)sulfonyl]methyl}butyl)-N-hydroxyformamide]: 4.2 nM, 6%, 43%, 85% and 7%.
Consider `CCC(CC)C(CS(=O)(=O)N1CCc2ccc(Br)cc2C1)N(O)C=O` (stereo not shown) [Example 36, N-(1-{[(7-bromo-3,4-dihydroisoquinolin-2(1H)-yl)sulfonyl]-methyl}-2-ethylbutyl)-N-hydroxyformamide], for which, in experiment [1], the IC50 was 5.7 nM. Besides, the inhibition at 5 µM in experiment [2] was 41%; in experiment [3] it was 37%; in experiment [4] it was 75%. Moreover, the inhibition at 0.1 µM in experiment [4] stood at 3%.
Consider `CCC(CC)C(CS(=O)(=O)N1CCc2cc(C(F)(F)F)ccc2C1)N(O)C=O` (stereo not shown) [Example 37, N-[2-ethyl-1-({[6-(trifluoromethyl)-3,4-dihydroisoquinolin-2(1H)-yl]sulfonyl}methyl)butyl]-N-hydroxyformamide], for which the concentration for half-maximal inhibition (IC50) in experiment [1] turned out to be 4.2 nM. In addition, the inhibition at 5 µM was 36% in experiment [2], 58% in experiment [3] and 83% in experiment [4]. Further, the inhibition at 0.1 µM in experiment [4] is 8%.
Turning to `CCC(CC)C(CS(=O)(=O)N1CCc2ccc(OC)cc2C1)N(O)C=O` (stereo not shown) [Example 38, N-(2-ethyl-1-{[(7-methoxy-3,4-dihydroisoquinolin-2(1H)-yl)sulfonyl]methyl}butyl)-N-hydroxyformamide], the IC50 in experiment [1] amounted to 7.2 nM. Moreover, the inhibition at 5 µM in experiment [2] was 17%; in experiment [3] it was 50%; in experiment [4], 49%.
